Data set [1] relates to Mesocricetus auratus. The experiment in a line: Antimetastatic activity against Syrian hamster LG1002 cells allografted to Syrian golden hamster LSH/LAK assessed as reduction of lung metastases at 15 mg/kg, ip for every 48 hrs for 4 weeks measured after 48 hrs of last treatment relative to saline control. The data set is classed as functional, organism-based. Also on record: dose 15 mg/kg.

Data set [2] is described as follows: Induction of tumor growth in Syrian hamster LG1002 cells in allografted Syrian golden hamster at 15 mg/kg, ip for every 48 hrs for 4 weeks measured after 48 hrs of last treatment. The following applies: in vivo. The data set is classed as organism-based, Mesocricetus auratus. Also on record: dose 15 mg/kg, route intraperitoneal.
Data set [3] has as its system Mesocricetus auratus. As to the kind of experiment: Antimetastatic activity against Syrian hamster LG1002 cells allografted to Syrian golden hamster LSH/LAK assessed as reduction of lung metastases at 15 mg/kg, ip for every 48 hrs for 4 weeks measured after 48 hrs of last treatment relative to carboxymethylcellulose. The data set is classed as functional, organism-based. Also on record: dose 15 mg/kg.

Data set [4] can be described thus: Induction of tumor growth in Syrian hamster LG1002 cells in allografted Syrian golden hamster at 15 mg/kg, ip for every 48 hrs for 4 weeks measured after 48 hrs of last treatment on day 28. The data set is classed as organism-based, Mesocricetus auratus. Also on record: dose 15 mg/kg, route intraperitoneal. The following applies: in vivo.

Activity calls are given as the source filed them. No cut-off for these calls is given here.

`O=C1CN([C@@H]2C[C@@H]2N2CC(=O)NC(=O)C2)CC(=O)N1`: the inhibition result with Mesocricetus auratus [1] and with Mesocricetus auratus [3] was “Active” in each case. Also, the Activity result in data set [2] was “Non-toxic”.
`O=C1CN([C@H]2C[C@@H]2N2CC(=O)NC(=O)C2)CC(=O)N1` (relative stereo): the inhibition result in the data set with Mesocricetus auratus [1] and in the data set with Mesocricetus auratus [3] was “inactive” in each case. Moreover, the Activity entry was “Toxic” in data set [2] and over 100 mm2 in data set [4].
